The results in this text go back to patent US8609674B2, “Potassium channel modulators” (AbbVie Inc., priority 2010, dated 2013).

One may read the EC50 as the concentration giving half of the maximal effect. Read a high EC50 as a less potent agent.

One experiment deals with T1, human KCNQ4 (Homo sapiens, UniProt P56696).
T1 construct: expressed in transfected cells; host or cells: HEK293
Description: KCNQ4 thallium influx FLIPR TETRA assay. The class given is cell-based. The following applies: for EC50: HEK293 cells stably expressing human KCNQ4, Tl+ influx; for Emax: maximum response relative to 10 μM retigabine (=100%), read-out: KCNQ4 Max. %. The procedure:
(§1) The following example describes the assay that may be used to identify compounds that activate KCNQ4 or KCNQ5 channels.
(§2) The assays were performed using a FLIPR^TETRA (Molecular Devices, Sunnyvale, Calif.) in 384-well format. HEK293 cells stably expressing human KCNQ4 or KCNQ5 were seeded in 384-well, black-walled, clear-bottomed, poly-D-lysine coated plates (Greiner Bio-One, Germany) at a density of 1.5×10^4 cells per well, 24 hours before the assay. On the assay day, BTC-AM dye was loaded into the cells by replacing the cell culture medium with 30 μL/well of 2.8 μM dye in DPBS. Dye loading was allowed to proceed for 2 hours at room temperature and then cells were washed once in 30 μL/well of assay buffer (in mM: 10 HEPES pH 7.3, 5 glucose, 140 Na-gluconate, 2.5 K-gluconate, 3.6 Ca-gluconate, 2 MgSO4, 0.1 Ouabain) to remove unloaded dye. Cells were incubated in 30 μL of assay buffer before loading onto a FLIPR^TETRA system. Compounds to be assayed were added to the cells as 4× of final concentration in 15 μL of assay buffer and incubated for 4 minutes at room temperature. The influx signal was initiated by adding 15 μL of assay buffer containing 4.2 mM TlNO3 and 7 mM K2SO4. Tl^+ influx signals were recorded for 3 minutes. Tl^+ influx signal was quantified as light unit changes after Tl^+ addition using the “SUM” statistic from the FLIPR^TETRA software. Sums of the responses over basal responses were plotted versus concentrations of test compounds to obtain an EC50 value and the points fit with a nonlinear regression curve using GraphPad Prism software (GraphPad Software Inc., San Diego, Calif.). EC50 values were calculated from the resulting sigmoidal dose-response curves. The maximum response for each test compound was determined relative to the response produced by 10 μM retigabine. The maximum response of retigabine at 10 μM was set at 100%.

A further experiment deals with T2, human KCNQ5 (Homo sapiens, UniProt Q9NR82).
T2 construct: expressed in transfected cells; host or cells: HEK293
As to the kind of experiment: KCNQ5 thallium influx FLIPR TETRA assay. The class given is cell-based. Particulars: for EC50: HEK293 cells stably expressing human KCNQ5, Tl+ influx; for Emax: maximum response relative to 10 μM retigabine (=100%), read-out: KCNQ5 Max. %. Here is the method: as §1, §2

In experiment [1] the target is T3, human KCNQ2 and KCNQ3 subunits (KCNQ2/3 channels) (Homo sapiens, UniProt O43525+O43526).
T3 construct: expressed in transfected cells; host or cells: HEK293
Description: KCNQ2/3 thallium influx FLIPR assay (BTC-AM dye). Type of experiment: cell-based. The following applies: for EC50: HEK293 cells stably expressing human KCNQ2 and KCNQ3, Tl+ influx; for Emax: maximum response relative to 10 μM retigabine (=100%), read-out: KCNQ2/3 Max. %. The procedure: The following example describes the assay that may be used to identify compounds that activate KCNQ2/3 channels.
HEK293 cells stably expressing human KCNQ2 and KCNQ3 subunits were seeded in 96-well, black-walled, clear-bottomed, poly-D-lysine coated plates (BD Biosciences, Bedford, Mass.) at a density of 1×10^5 cells per well 24 hours before the assay. On the assay day, BTC-AM dye (Invitrogen, Carlsbad, Calif.) was loaded into the cells by replacing the cell culture medium with 55 μL/well of 3 μg/ml dye in Dulbecco's Phosphate Buffered Saline (DPBS) (Invitrogen). Dye loading was allowed to proceed for 2 hours at room temperature and then cells were washed twice with 50 μL/well of assay buffer (in mM: 10 HEPES pH 7.3, 5 glucose, 140 Na-gluconate, 2.5 K-gluconate, 3.6 Ca-gluconate, 2 MgSO4, 0.1 Ouabain) to remove unloaded dye. Cells were incubated in 50 μL of assay buffer before loading onto a FLIPR system (Molecular Devices, Sunnyvale, Calif.). Various concentrations of compounds to be assayed were added to the cells in 50 μL of assay buffer and incubated for 4 minutes. The fluorescence signal was initiated by adding 100 μL of assay buffer containing 6 mM TlNO3 and 10 mM K2SO4. Fluors were excited using the 488-nm line of an argon laser and emission was filtered using a 540±30 nm bandpass filter. Fluorescent signals were recorded for 3 minutes. Sums of the responses over basal responses were plotted versus concentrations of test compounds to obtain an EC50 value and the points fit with a nonlinear regression curve using GraphPad Prism software (GraphPad Software Inc., San Diego, Calif.). EC50 values were calculated from the resulting sigmoidal dose-response curves. The maximum response for each test compound was determined relative to the response produced by 10 μM retigabine. The maximum response of retigabine at 10 μM was set at 100%.

For experiment [2], the system named is spinal nerve ligation-induced neuropathic pain. As to the kind of experiment: Spinal nerve ligation (SNL) model of neuropathic pain. Type of experiment: in vivo, Sprague-Dawley rats. Particulars: rat SNL model, about 30 mg/kg i.p., 30 minutes or more before testing. From the text:
(§3) Adult male Sprague-Dawley rats (250-300 g body weight, Charles River Laboratories, Portage, Mich.) were used. Animal handling and experimental protocols were approved by the Institutional Animal Care and Use Committee (IACUC) at Abbott Laboratories. For all surgical procedures, animals were maintained under isoflurane anesthesia (4-5% to induce, 1-3% to maintain), and the incision sites were sterilized using a 10% povidone-iodine solution prior to and after surgeries.
(§4) Tactile (mechanical) allodynia was measured using calibrated von Frey filaments (Stoelting, Wood Dale, Ill.) as described in Chaplan, S. R., F. W. Bach, J. M. Pogrel, J. M. Chung and T. L. Yaksh, 1994, Quantitative assessment of tactile allodynia in the rat paw, J. Neurosci. Methods, 53, 55. […] A 50% withdrawal threshold was determined using an up-down procedure (Dixon, W. J., 1980, Efficient analysis of experimental observations, Ann. Rev. Pharmacol. Toxicol., 20, 441). […] Tactile allodynia thresholds were also assessed in several control groups, including naive, sham-operated, and saline infused animals as well as in the contralateral paws of nerve-injured rats. To evaluate the anti-nociceptive effects, animals were administered vehicle or test compound and tactile allodynia was assessed 30 minutes after i.p. administration. […]

In experiment [3] the test system is chronic constriction injury-induced neuropathic pain. As to the kind of experiment: Chronic constriction injury (CCI) model of neuropathic pain (Bennett model). Type of experiment: in vivo, Sprague-Dawley rats. Particulars: rat CCI model, about 30 mg/kg i.p., 30 minutes or more before testing.
Text: as §3, §4

For experiment [4], the system named is capsaicin-induced secondary mechanical hyperalgesia. As to the kind of experiment: Capsaicin-induced secondary mechanical hypersensitivity. Type of experiment: in vivo, Sprague-Dawley rats. Particulars: rat, about 30 mg/kg i.p., 30 min before testing, 180 min after capsaicin.
Text: as §3
Rats were allowed to acclimate to the study room for 1 hour. They were then briefly restrained, and capsaicin was administered at 10 μg in 10 μl of vehicle (10% ethanol and 2-hydroxypropyl cyclodextrin) by intraplantar injection into the center of the right hind paw. Secondary mechanical hyperalgesia was measured at the heel away from the site of injection at 180 min following capsaicin (Joshi et al 2006, Neuroscience 143, 587-596). Compounds were injected (i.p.) 30 min before testing (150 min post-capsaicin).
Tactile (mechanical) allodynia was measured using calibrated von Frey filaments (Stoelting, Wood Dale, Ill.) as described in Chaplan, S. R., F. W. Bach, J. M. Pogrel, J. M. Chung and T. L. Yaksh, 1994, Quantitative assessment of tactile allodynia in the rat paw, J. Neurosci. Methods, 53, 55. Rats were placed into inverted individual plastic containers (20×12.5×20 cm) on top of a suspended wire mesh grid, and acclimated to the test chambers for 20 minutes. […] A 50% withdrawal threshold was determined using an up-down procedure (Dixon, W. J., 1980, Efficient analysis of experimental observations, Ann. Rev. Pharmacol. Toxicol., 20, 441). […] Tactile allodynia thresholds were also assessed in several control groups, including naive, sham-operated, and saline infused animals as well as in the contralateral paws of nerve-injured rats. To evaluate the anti-nociceptive effects, animals were administered vehicle or test compound and tactile allodynia was assessed 30 minutes after i.p. administration.
Tactile allodynia was measured as described above.

As for `CC1(C)[C@H]2CC[C@@H](CC(=O)Nn3c(C4CC4)nc4sccc4c3=O)[C@@H]1C2` [Example 15, N-(2-cyclopropyl-4-oxothieno[2,3-d]pyrimidin-3(4H)-yl)-2-[(1S,2S,5S)-6,6-dimethylbicyclo[3.1.1]hept-2-yl]acetamide], the values for the EC50 (on human KCNQ4; at human KCNQ5; in experiment [1]) were above 30 µM, above 30 µM and 0.1 to 0.5 µM, respectively. Besides, the Emax at human KCNQ4 was 21%; on human KCNQ5, 210%; in experiment [1], 149%. In addition, in experiment [2], the “change in paw withdrawal latency versus vehicle (tactile allodynia)” value is on record as “statistically significant change in paw withdrawal latency versus vehicle”.
For `CC(C)c1nc2ccccc2c(=O)n1NC(=O)C[C@@H]1CC[C@H]2C[C@@H]1C2(C)C` [Example 1, 2-[(1S,2S,5S)-6,6-dimethylbicyclo[3.1.1]hept-2-yl]-N-[4-oxo-2-(propan-2-yl)quinazolin-3(4H)-yl]acetamide], the EC50 on human KCNQ4 was above 30 µM; at human KCNQ5 it was above 30 µM; in experiment [1] it was below 0.1 µM. Moreover, the Emax on human KCNQ4 was found to be 22%; on human KCNQ5, 164%; in experiment [1], 103%. Besides, the “change in paw withdrawal latency versus vehicle (mechanical allodynia)” value in experiment [3] is on record as “statistically significant change in paw withdrawal latency versus vehicle”. Further, the “change in paw withdrawal latency versus vehicle (tactile allodynia)” value in experiment [2] and in experiment [4] was “statistically significant change in paw withdrawal latency versus vehicle” each time.
